Data reported in patent US7465715B2, “Method for treatment of multiple sclerosis” (Can-Fite Biopharma, Ltd., priority 2003, dated 2008).

Tests used:
[1] = system: EAE; test: Experimental autoimmune encephalomyelitis (EAE) induced with MBP in Lewis rats, clinical score; format: in vivo, female Lewis rats
[2] = molecular target: T1, A1 receptor (Rattus norvegicus, UniProt P25099); conditions: cited from earlier work
T1 sequence (P25099 1-326): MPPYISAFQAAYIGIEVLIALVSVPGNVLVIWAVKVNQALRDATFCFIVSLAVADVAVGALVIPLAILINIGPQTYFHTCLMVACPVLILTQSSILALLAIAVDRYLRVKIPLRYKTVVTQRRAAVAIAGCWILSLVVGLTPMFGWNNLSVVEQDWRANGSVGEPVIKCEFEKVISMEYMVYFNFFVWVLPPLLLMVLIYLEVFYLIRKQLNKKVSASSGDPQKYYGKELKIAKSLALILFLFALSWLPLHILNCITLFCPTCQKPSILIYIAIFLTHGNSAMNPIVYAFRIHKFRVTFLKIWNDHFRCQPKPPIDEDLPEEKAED

[3] = system: multiple sclerosis; conditions: patients having MS; cited from earlier work

Structure (SMILES)	difference in the maximal clinical score between treated and control groups ([1]; 10 μg/kg PO BID from day 7, P<0.01, Student's t test)	severity of the disease in the treated group ([1]; 10 μg/kg PO BID from day 7 after disease induction)	clinical score in comparison to the control group ([1]; 10 μg/kg PO BID from day 7 after disease induction, score 0-5)	functional character at A1 receptors [2]	effect on the disease condition of MS patients [3]
CNC(=O)[C@H]1O[C@@H](n2cnc3c(NCc4cccc(I)c4)ncnc32)[C@H](O)[C@@H]1O [CF101, N^6-(3-iodobenzyl)-adenosine-5′-N-methyluronamide]	significant	significantly reduced	remarkably low clinical score	–	–
Nc1nc(Cl)nc2c1ncn2[C@H]1C[C@H](O)[C@@H](CO)O1 [CdA, 2-chloro-2′-deoxyadenosine]	–	–	–	putative partial agonist	markedly ameliorate the disease condition
